Data as given in patent US10150982B2, “Microbial ecology shift assay” (Second Genome, Inc., priority 2013, dated 2018).

Key:
[1] = tested on: microbiota of human donor fecal samples; experiment: MESA microplate experiments (16S rRNA V4 sequencing, PCoA/Unifrac); type: cell-based; conditions: 24 hours anaerobic
Method: A fecal sample was obtained from each of three human donors, Donor 1, Donor 2, and Donor 3. 1 gram of each fecal sample was added to 10 mL phosphate buffered saline (PBS) to form three separate slurries of 10% (w/v) fecal sample. A total of 36 experiments was setup on a 48-well plate (referred to herein as “microplate experiments”). For each slurry obtained from Donor 1 Donor 2, or Donor 3, 40 μL of the respective slurry was added to each of twelve wells of the plate. For each of these 12 wells, 360 μL of water (control), water comprising fructose, or water comprising fructose oligosaccharide (FOS) were added. After addition of water, three of the twelve wells comprised slurry+water; three of the twelve wells comprised slurry+2% w/v fructose+water; three of the twelve wells comprised slurry+0.5% w/v FOS+water; and three of the twelve wells comprised slurry+2% w/v FOS+water. In Table 1, “Donor 1” represents slurry from Donor 1, “Donor 2” represents slurry from Donor 2, and “Donor 3” represents slurry from Donor 3. The microplate was then incubated for 24 hours in an anaerobic chamber under 80% nitrogen, 10% carbon dioxide, and 10% hydrogen (H2). A total of 8 experiments were prepared each in a vial (referred to herein as “tube experiments”). 200 μL of slurry from Donor 1 was added to each of the 8 vials. In 4 of the vials, 1.8 mL of water comprising FOS was added for a final concentration of 2% w/v FOS. For the other four vials, 1.8 mL of water (control) was added. Two of the vials comprising FOS and the two vials comprising water are incubated for 24 hours in an anaerobic chamber (comprising 80% nitrogen, 10% carbon dioxide, and 10% hydrogen (H2)) at 37° C. The other four vials are incubated for 16 hours. DNA was extracted from each sample (well or tube) and quantified using a PicoGreen method. DNA is also extracted from an aliquot of each slurry obtained from Donor 1, Donor 2, and Donor 3. DNA comprising the variable region (V4) region of the 16S rRNA gene was amplified and sequenced using the MiSeq platform from Ilumina. Principle component analyses (PCoA) were performed to identify Unifrac distances (degree of similarity/dissimilarity) of the different treatment groups. Relative taxa representation for the various treatment groups was determined at the phylum, class, order, family, genus and species levels using operational taxonomic units (OTUs) by comparing results to the GreenGenes database.

[2] = tested on: microbiota of human donor fecal samples; experiment: MESA tube experiments (16S rRNA V4 sequencing, PCoA/Unifrac); type: cell-based; conditions: 2% FOS
Method: A fecal sample was obtained from each of three human donors, Donor 1, Donor 2, and Donor 3. 1 gram of each fecal sample was added to 10 mL phosphate buffered saline (PBS) to form three separate slurries of 10% (w/v) fecal sample. A total of 36 experiments was setup on a 48-well plate (referred to herein as “microplate experiments”). For each slurry obtained from Donor 1 Donor 2, or Donor 3, 40 μL of the respective slurry was added to each of twelve wells of the plate. For each of these 12 wells, 360 μL of water (control), water comprising fructose, or water comprising fructose oligosaccharide (FOS) were added. After addition of water, three of the twelve wells comprised slurry+water; three of the twelve wells comprised slurry+2% w/v fructose+water; three of the twelve wells comprised slurry+0.5% w/v FOS+water; and three of the twelve wells comprised slurry+2% w/v FOS+water. In Table 1, “Donor 1” represents slurry from Donor 1, “Donor 2” represents slurry from Donor 2, and “Donor 3” represents slurry from Donor 3. […] DNA was extracted from each sample (well or tube) and quantified using a PicoGreen method. […] Relative taxa representation for the various treatment groups was determined at the phylum, class, order, family, genus and species levels using operational taxonomic units (OTUs) by comparing results to the GreenGenes database.

[3] = Donor 1, 2% w/v agent, n=3, FIG. 2
[4] = Donor 2, 2% w/v agent, n=3, FIG. 3
[5] = Donor 3, 2% w/v agent, n=3, FIG. 4

Molecule	shift in microbiota profile (PCoA, Unifrac distances) ([1]; Donor 1, 0.5% w/v agent, n=3, FIG. 2)	shift in microbiota profile (PCoA, Unifrac distances) [1, 3]	shift in microbiota profile (PCoA, Unifrac distances) ([1]; Donor 2, 0.5% w/v agent, n=3, FIG. 3)	shift in microbiota profile (PCoA, Unifrac distances) [1, 4]	shift in microbiota profile (PCoA, Unifrac distances) ([1]; Donor 3, 0.5% w/v agent, n=3, FIG. 4)	shift in microbiota profile (PCoA, Unifrac distances) [1, 5]	shifts in microbial communities between the two assay formats ([2]; 24 hour incubation, tube (n=2) vs microplate (n=3), FIG. 6)	shifts in microbial communities between the two incubation times ([2]; Donor 1, 16 hour vs 24 hour incubation, tube, n=2, FIG. 5)
fructose oligosaccharide [FOS]	shift microbiota differently from controls	shift microbiota differently from controls	shift microbiota differently from controls	shift microbiota differently from controls	shift microbiota differently from controls	shift microbiota differently from controls	similar	similar
O=C(CO)[C@@H](O)[C@H](O)[C@H](O)CO [fructose]		shift microbiota differently from controls		shift microbiota differently from controls		shift microbiota differently from controls		
